Molecules are shown by their SMILES. Active and inactive are the calls of the source. No cut-off for these calls is given here.

The text below walks through data of ChEMBL document CHEMBL3045584, “1-(6-Halonicotinyl)-2-nitromethylene-imidazolidines as Potential New Insecticides” (1992).

For one assay, the system named is Nephotettix cincticeps. As to the kind of experiment: Insecticidal activity against Nephotettix cincticeps (green rice leafhopper) measured at 100 ppm after 5 days. Format: functional, organism-based.
On to `O=[N+]([O-])/C=C1\NCCN1Cc1ccccc1Cl`, for which the LC90 result is “inactive”.

A further assay relates to Nephotettix cincticeps. Briefly: Insecticidal activity against Nephotettix cincticeps (green rice leafhopper) measured after 5 days. Format: functional.
Compound `O=[N+]([O-])/C=C1\NCCN1Cc1ccc(Cl)nc1` yielded an LC90 of 0.32 ppm. Still for that read-out and setting: the value for `O=[N+]([O-])/C=C1\NCCN1Cc1cccnc1Cl` was 200 ppm; that for `O=[N+]([O-])/C=C1\NCCN1Cc1ccc([N+](=O)[O-])cc1` was 200 ppm; that for `CSc1ccc(CN2CCN/C2=C\[N+](=O)[O-])cn1` was 1000 ppm. The same measure, in the same setting: in the case of `O=[N+]([O-])/C=C1\NCCN1Cc1ccc(Br)nc1` it was 0.32 ppm.

The compound `O=[N+]([O-])/C=C1\NCCN1Cc1ccc(C(F)(F)F)nc1` returned an LC90 of 8 ppm. The compound `O=[N+]([O-])/C=C1\NCCN1Cc1ccc(Cl)cn1` had an LC90 of 200 ppm. Same read-out and setting: in the case of `O=[N+]([O-])/C=C1\NCCN1Cc1cccnc1` it was 8 ppm. Same read-out and setting: in the case of `N#Cc1ccc(CN2CCN/C2=C\[N+](=O)[O-])cn1` it was 200 ppm; in that of `O=[N+]([O-])/C=C1\NCCN1Cc1ccnc(Cl)c1`, 200 ppm. Same read-out and setting: the value for `O=[N+]([O-])/C=C1\NCCN1Cc1cccc(Cl)c1` was 200 ppm; that for `Cc1ccc(CN2CCN/C2=C\[N+](=O)[O-])cn1` was 1.6 ppm. As to `O=[N+]([O-])/C=C1\NCCN1Cc1ccncc1`, the LC90 was found to be 8 ppm.

`O=[N+]([O-])/C=C1\NCCN1Cc1cncc(Cl)c1` registered an LC90 of 40 ppm.

`Cc1ccc(CN2CCN/C2=C\[N+](=O)[O-])cc1` returned an LC90 of 200 ppm. Still for that read-out and setting: the value for `O=[N+]([O-])/C=C1\NCCN1Cc1ccccn1` was 200 ppm; that for `O=[N+]([O-])C=C1NCCN1` [2-(NITROMETHYLENE)IMIDAZOLIDINE] was 1000 ppm. Take `O=[N+]([O-])/C=C1\NCCN1Cc1ccc(F)nc1`: the LC90 is 0.32 ppm.

Compound `O=[N+]([O-])/C=C1\NCCN1Cc1ccccc1` had an LC90 of 200 ppm. Compound `O=[N+]([O-])/C=C1\NCCN1Cc1ccc(Cl)cc1` showed an LC90 of 40 ppm.

For the compound `COc1ccc(CN2CCN/C2=C\[N+](=O)[O-])cc1`, the LC90 is given as 200 ppm.
